Data taken from ChEMBL document CHEMBL1148293 (J Med Chem, 2004).

Assays:
[1] = biological target: Mu-type opioid receptor (Cavia porcellus, UniProt P97266); assay: Binding affinity against opioid receptor mu 1 using [3H]DAMGO as radioligand in guinea pig brain membranes.; assay type: cell membranes
[2] = biological target: Kappa-type opioid receptor (Cavia porcellus, UniProt P41144); assay: Binding affinity against opioid receptor kappa 1 using [3H]-U-69,593 as radioligand in guinea pig brain membranes.; assay type: cell membranes
[3] = biological target: Opioid receptors; delta & kappa (UniProt P41145+P41143); assay: Selectivity ratio expressed as Ki of delta opioid receptor to that of kappa opioid receptor.; assay type: protein assay; conditions: Cavia porcellus
[4] = tested on: Opioid receptors; mu & delta; assay: Selectivity ratio expressed as Ki of delta opioid receptor to that of mu opioid receptor.; assay type: protein assay; conditions: Cavia porcellus

Chain of Opioid receptors; delta & kappa (P41143 whole entry, looked up): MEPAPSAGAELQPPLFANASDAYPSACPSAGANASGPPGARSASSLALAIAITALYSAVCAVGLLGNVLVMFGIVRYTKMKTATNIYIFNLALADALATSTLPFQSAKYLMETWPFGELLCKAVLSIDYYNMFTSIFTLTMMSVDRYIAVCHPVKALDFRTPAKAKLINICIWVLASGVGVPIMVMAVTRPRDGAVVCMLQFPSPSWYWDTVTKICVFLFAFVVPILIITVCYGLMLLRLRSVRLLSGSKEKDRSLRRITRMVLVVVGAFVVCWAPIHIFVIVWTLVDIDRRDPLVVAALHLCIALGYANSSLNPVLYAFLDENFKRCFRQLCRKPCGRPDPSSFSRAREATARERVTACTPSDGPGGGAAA
Chain of Opioid receptors; delta & kappa (P41145 whole entry, looked up): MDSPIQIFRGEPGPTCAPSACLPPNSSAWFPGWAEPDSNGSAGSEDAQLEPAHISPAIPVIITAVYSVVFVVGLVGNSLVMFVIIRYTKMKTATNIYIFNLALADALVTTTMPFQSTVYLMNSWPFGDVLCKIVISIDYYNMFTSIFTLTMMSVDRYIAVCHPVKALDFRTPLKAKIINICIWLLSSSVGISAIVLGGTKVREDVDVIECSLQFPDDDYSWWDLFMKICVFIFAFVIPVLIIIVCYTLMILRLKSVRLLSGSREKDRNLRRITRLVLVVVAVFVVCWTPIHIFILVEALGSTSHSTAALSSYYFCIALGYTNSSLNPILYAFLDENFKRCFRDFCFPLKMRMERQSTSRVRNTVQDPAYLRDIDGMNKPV
Chain of Mu-type opioid receptor (P97266 whole entry): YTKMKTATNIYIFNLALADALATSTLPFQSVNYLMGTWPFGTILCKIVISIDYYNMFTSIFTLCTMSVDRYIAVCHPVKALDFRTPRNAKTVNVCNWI
Chain of Kappa-type opioid receptor (P41144 whole entry): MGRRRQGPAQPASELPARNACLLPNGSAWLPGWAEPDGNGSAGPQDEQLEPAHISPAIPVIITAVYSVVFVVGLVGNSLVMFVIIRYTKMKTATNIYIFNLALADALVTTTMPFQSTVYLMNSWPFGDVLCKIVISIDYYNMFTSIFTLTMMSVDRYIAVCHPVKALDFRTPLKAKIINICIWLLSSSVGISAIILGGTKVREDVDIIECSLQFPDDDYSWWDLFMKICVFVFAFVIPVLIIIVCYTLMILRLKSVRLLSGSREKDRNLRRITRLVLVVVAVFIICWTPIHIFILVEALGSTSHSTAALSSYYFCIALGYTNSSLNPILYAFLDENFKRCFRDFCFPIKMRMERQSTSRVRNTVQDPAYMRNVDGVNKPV

Nc1ccc2c(c1)[C@@]13CCCC[C@H]1[C@@H](C2)N(CC1CC1)CC3
Ki [1]: 1.3 nM
Ki [2]: 0.18 nM
Selectivity [3]: 830
Selectivity [4]: 120

O=C1c2ccc(O)cc2[C@@]23CCCC[C@H]2[C@@H]1NCC3
Ki [1]: 20 nM
Ki [2]: 25 nM
Selectivity [3]: > 400
Selectivity [4]: > 500

O=C1c2ccc(OCC3CCC3)cc2[C@@]23CCCC[C@H]2[C@@H]1N(CC1CCC1)CC3
Ki [1]: 800 nM
Ki [2]: 290 nM
Selectivity [3]: 35
Selectivity [4]: > 12

O=C1c2ccc(O)cc2[C@@]23CCCC[C@H]2[C@@H]1N(CCF)CC3
Ki [1]: 560 nM
Ki [2]: 250 nM
Selectivity [3]: > 40
Selectivity [4]: > 18

O=C1c2ccc(O)cc2[C@@]23CCCC[C@H]2[C@@H]1N(CCCF)CC3
Ki [1]: 20 nM
Ki [2]: 2.5 nM

O=C1c2ccc(O)cc2[C@@]23CCCC[C@H]2[C@@H]1N(CCc1ccccc1)CC3
Ki [1]: 0.63 nM
Ki [2]: 7.7 nM
Selectivity [3]: 1.3
Selectivity [4]: 15

NC(=O)c1ccc2c(c1)[C@@]13CCCC[C@H]1[C@@H](C2)N(CC1CC1)CC3
Ki [1]: 0.059 nM
Ki [2]: 0.18 nM
Selectivity [3]: 5.6
Selectivity [4]: 17

NCc1ccc2c(c1)[C@@]13CCCC[C@H]1[C@@H](C2)N(CC1CCC1)CC3
Ki [1]: 8.5 nM
Ki [2]: 8.6 nM
Selectivity [3]: 48
Selectivity [4]: 48

CN1CC[C@]23CCCC[C@H]2[C@H]1Cc1ccc(CN)cc13
Ki [1]: 66 nM
Ki [2]: 120 nM
Selectivity [3]: > 21
Selectivity [4]: > 38

O=C(O)c1ccc2c(c1)[C@@]13CCCC[C@H]1[C@@H](C2=O)N(CC1CCC1)CC3
Ki [1]: 28 nM
Ki [2]: 59 nM
Selectivity [3]: 14
Selectivity [4]: 29

N#Cc1ccc2c(c1)[C@@]13CCCC[C@H]1[C@@H](C2)N(CC1CCC1)CC3
Ki [1]: 37 nM
Ki [2]: 6 nM
Selectivity [3]: 320
Selectivity [4]: 51

CN1CC[C@]23CCCC[C@H]2[C@H]1Cc1ccc(C(N)=O)cc13
Ki [1]: 0.073 nM
Ki [2]: 3.9 nM
Selectivity [3]: 3.3
Selectivity [4]: 180

Oc1ccc2c(c1)[C@@]13CCCC[C@H]1[C@@H](C2)N(CC1CCC1)CC3 [BUTORPHAN]
Ki [2]: 0.079 nM
Selectivity [3]: 75
Selectivity [4]: 26

O=C1c2ccc(-c3nn[nH]n3)cc2[C@@]23CCCC[C@H]2[C@@H]1N(CC1CCC1)CC3
Selectivity [3]: 5
Selectivity [4]: 7.8

c1cc2c(cc1-c1nnn[nH]1)[C@@]13CCCC[C@H]1[C@@H](C2)N(CC1CCC1)CC3
Ki [1]: 1100 nM
Ki [2]: 850 nM

O=C(Nc1ccc2c(c1)[C@@]13CCCC[C@H]1[C@@H](C2=O)N(CC1CCC1)CC3)c1ccccc1
Ki [1]: 4.4 nM
Ki [2]: 7.7 nM
Selectivity [3]: 49
Selectivity [4]: 86

COc1ccc2c(c1)[C@@]13CCCC[C@H]1[C@H](NCC3)C2=O
Ki [1]: 110 nM
Ki [2]: 390 nM
Selectivity [3]: 0.04
Selectivity [4]: 0.14

N#Cc1ccc2c(c1)[C@@]13CCCC[C@H]1[C@@H](C2=O)N(CC1CCC1)CC3
Ki [2]: 400 nM

C#CCOc1ccc2c(c1)[C@@]13CCCC[C@H]1[C@@H](C2=O)N(CC#C)CC3
Ki [1]: 710 nM
Ki [2]: 500 nM
Selectivity [3]: > 20
Selectivity [4]: > 14

CN1CC[C@]23CCCC[C@H]2[C@H]1Cc1ccc(C#N)cc13
Ki [1]: 20 nM
Ki [2]: 200 nM
Selectivity [3]: > 5
Selectivity [4]: > 500

O=C1c2ccc(O)cc2[C@@]23CCCC[C@H]2[C@@H]1N(Cc1ccc2ccccc2c1)CC3
Ki [1]: 2200 nM
Ki [2]: 780 nM
Selectivity [3]: > 13
Selectivity [4]: > 4.5

c1cc2c(cc1-c1nn[nH]n1)[C@@]13CCCC[C@H]1[C@@H](C2)N(CC1CCC1)CC3
Selectivity [3]: > 12
Selectivity [4]: > 9

O=C1c2ccc(-c3nnn[nH]3)cc2[C@@]23CCCC[C@H]2[C@@H]1N(CC1CCC1)CC3
Ki [1]: 230 nM
Ki [2]: 360 nM

Nc1ccc2c(c1)[C@@]13CCCC[C@H]1[C@@H](C2)N(CC1CCC1)CC3
Ki [1]: 3.7 nM
Ki [2]: 1.8 nM
Selectivity [3]: 100
Selectivity [4]: 49

NC(=O)c1ccc2c(c1)[C@@]13CCCC[C@H]1[C@@H](C2)N(CC1CCC1)CC3
Ki [2]: 0.087 nM

CN1CC[C@]23CCCC[C@H]2[C@H]1Cc1ccc(-c2nn[nH]n2)cc13
Selectivity [3]: > 26
Selectivity [4]: > 26

CN1CC[C@]23CCCC[C@H]2[C@H]1Cc1ccc(O)cc13
Selectivity [3]: 1.8
Selectivity [4]: 20

O=C1c2ccc(O)cc2[C@@]23CCCC[C@H]2[C@@H]1N(CC1CCC1)CC3
Ki [1]: 3.3 nM
Ki [2]: 0.48 nM
Selectivity [3]: 540
Selectivity [4]: 79

O=C1c2ccc(O)cc2[C@@]23CCCC[C@H]2[C@@H]1N(CC1CC1)CC3
Ki [1]: 240 nM
Ki [2]: 24 nM
Selectivity [3]: 6
Selectivity [4]: 0.6

CC(C)=CCN1CC[C@]23CCCC[C@H]2[C@H]1C(=O)c1ccc(O)cc13
Ki [1]: 19 nM
Ki [2]: 7.4 nM
Selectivity [3]: 150
Selectivity [4]: 58

C#CCN1CC[C@]23CCCC[C@H]2[C@H]1C(=O)c1ccc(O)cc13
Ki [1]: 190 nM
Ki [2]: 60 nM
Selectivity [3]: 38
Selectivity [4]: 12

CN1CC[C@]23CCCC[C@H]2[C@H]1Cc1ccc(-c2nnn[nH]2)cc13
Ki [1]: 380 nM
Ki [2]: 380 nM

NC(=O)c1ccc2c(c1)[C@@]13CCCC[C@H]1[C@@H](C2=O)N(CC1CCC1)CC3
Ki [1]: 2.5 nM
Ki [2]: 2.7 nM
Selectivity [3]: 19
Selectivity [4]: 20

O=C1c2ccc(O)cc2[C@@]23CCCC[C@H]2[C@@H]1N(C[C@@H]1CCCO1)CC3
Ki [1]: 0.38 nM
Ki [2]: 0.18 nM
Selectivity [3]: 5.6
Selectivity [4]: 2.6

Nc1ccc2c(c1)[C@@]13CCCC[C@H]1[C@@H](C2=O)N(CC1CCC1)CC3
Ki [1]: 23 nM
Ki [2]: 4.7 nM
Selectivity [3]: 130
Selectivity [4]: 26

CN1CC[C@]23CCCC[C@H]2[C@H]1Cc1ccc(N)cc13
Ki [1]: 7.9 nM
Ki [2]: 110 nM
Selectivity [3]: 14
Selectivity [4]: 190

CN1CC[C@]23CCCC[C@H]2[C@H]1C(=O)c1ccc(O)cc13
Ki [1]: 21 nM
Ki [2]: 47 nM
Selectivity [3]: 26
Selectivity [4]: 57
